From ChEMBL document CHEMBL4422615, “Novel non-xanthine antagonist of the A2B adenosine receptor: From HTS hit to lead structure” (Eur J Med Chem, 2019)

Key:
Adenosine receptor A3 = target: T1, Adenosine receptor A3 (Mus musculus, UniProt Q61618); test: Antagonist activity at recombinant mouse A3 adenosine receptor expressed in CHO cells after 3 to 4 hrs by luciferase reporter gene assay; type: cell-based
T1 sequence (Q61618 whole entry): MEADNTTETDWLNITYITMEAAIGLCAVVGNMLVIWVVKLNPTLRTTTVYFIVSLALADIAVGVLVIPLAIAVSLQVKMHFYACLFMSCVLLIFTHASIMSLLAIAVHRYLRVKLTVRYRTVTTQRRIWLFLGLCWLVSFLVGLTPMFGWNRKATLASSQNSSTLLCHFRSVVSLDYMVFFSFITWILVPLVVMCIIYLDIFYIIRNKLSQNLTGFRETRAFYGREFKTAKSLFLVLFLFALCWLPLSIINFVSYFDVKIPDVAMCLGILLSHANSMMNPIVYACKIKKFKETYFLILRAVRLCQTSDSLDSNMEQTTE

Adenosine receptor A2b [1] = target: T2, Adenosine receptor A2b (Rattus norvegicus, UniProt P29276); test: Antagonist activity at recombinant rat A2B adenosine receptor expressed in CHO cells after 3 to 4 hrs by luciferase reporter gene assay; type: cell-based
T2 sequence (P29276 whole entry): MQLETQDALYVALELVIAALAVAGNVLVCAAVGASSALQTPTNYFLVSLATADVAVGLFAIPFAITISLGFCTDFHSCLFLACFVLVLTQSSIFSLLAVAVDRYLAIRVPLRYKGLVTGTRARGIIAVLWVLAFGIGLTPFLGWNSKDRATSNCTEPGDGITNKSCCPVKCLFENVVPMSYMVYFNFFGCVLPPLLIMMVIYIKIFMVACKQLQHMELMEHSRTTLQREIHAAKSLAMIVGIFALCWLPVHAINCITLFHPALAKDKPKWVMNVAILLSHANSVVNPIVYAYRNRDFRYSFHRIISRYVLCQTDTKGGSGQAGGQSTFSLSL

Adenosine receptor A2b [2] = target: T3, Adenosine receptor A2b (Homo sapiens, UniProt P29275); test: Antagonist activity at recombinant human A2B adenosine receptor expressed in CHO cells after 3 to 4 hrs by luciferase reporter gene assay; type: cell-based
T3 sequence (P29275 whole entry): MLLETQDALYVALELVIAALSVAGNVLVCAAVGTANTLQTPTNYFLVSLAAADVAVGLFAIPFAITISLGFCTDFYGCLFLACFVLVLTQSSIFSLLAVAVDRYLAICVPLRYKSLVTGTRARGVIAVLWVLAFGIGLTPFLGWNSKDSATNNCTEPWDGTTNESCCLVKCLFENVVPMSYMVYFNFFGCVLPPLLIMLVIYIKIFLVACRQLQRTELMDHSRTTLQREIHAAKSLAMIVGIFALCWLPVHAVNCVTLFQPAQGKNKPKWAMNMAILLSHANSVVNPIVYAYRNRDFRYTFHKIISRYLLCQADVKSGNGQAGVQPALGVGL

[3] = Toxicity in silica-induced C57BL/6J mouse pulmonary fibrosis model assessed as change in body weight at 100 to 500 mg/kg, bid administered via gavage treated from day 1 until day 7 after silica application; type: organism-based; conditions: in vivo, po
[4] = Volume of distribution at steady state in mouse at 0.3 mg/kg, iv administered as bolus dose by HPLC-MS/MS analysis; type: ADME, organism-based; conditions: in vivo, read-out: Vdss

Compound: CCn1c(=O)c2c(C)c(C(=O)N3CCC(O)CC3)sc2n(CCC(F)(F)F)c1=O
- IC50 (Adenosine receptor A3): > 6700 nM
- IC50 (Adenosine receptor A2b [1]): 280 nM
- IC50 (Adenosine receptor A2b [2]): 66 nM
- Activity [3]: Non-Toxic
- Vd [4]: 0.4 L/kg
